Measurements reported in patent US8247595B2, “Organic sulfur compound and its use for controlling harmful arthropod” (Sumitomo Chemical Company, Limited, priority 2007, dated 2012).

Legend:
Format in all cases: in vivo
Musca domestica = test: Test Example 2: treated filter paper with sucrose bait, death rate of Musca domestica; details: 500 ppm test solution, 0.7 ml on filter paper, 10 female imagoes, after 24 hours
Method: (§1) Preparations of the present compounds (1), (2), (3), (4), (5), (6), (7), (8), (9), (10), (13), (18), (23), (24), (25), (26), (27), (28), (29), (30), (31), (32), (33), (34), (35), (38) and (39) obtained according to Formulation Example 44 were diluted so that the active ingredient concentration was 500 ppm to obtain test solutions.
(§2) A filter paper having a diameter of 5.5 cm was spread on the bottom of a polyethylene cup having a diameter of 5.5 cm and 0.7 ml of the test solution was added dropwise onto the filter paper. As a bait 30 mg of sucrose was uniformly placed on the filter paper. Into the polyethylene cup, 10 female imagoes of Musca domestica were released and the cup was sealed with a lid. After 24 hours, the number of surviving Musca domestica was examined and the death rate of the pest was calculated.
As a result, in treatments with the present compounds (1), (2), (3), (4), (5), (6), (7), (8), (9), (10), (13), (18), (23), (24), (25), (26), (27), (28), (29), (30), (31), (32), (33), (34), (35), (38) and (39), the death rate of the pest was 70% or more.

Culex pipiens pallens = test: Test Example 4: larvae released into treated water, death rate of Culex pipiens pallens; details: 24 h, active ingredient concentration 3.5 ppm in water, 20 last-instar larvae, after one day
Method: as §1, with “(7),” for “(7), (8), (9), (10),”, “(13), (14), (15), (16),” for “(13),”, “(18), (22),” for “(18),”, “(35), (36),” for “(35),”
To 100 mL of ion-exchanged water, 0.7 ml of the test solution was added (active ingredient concentration: 3.5 ppm). Into the solution, 20 last-instar larvae of Culex pipiens pallens were released. After one day, the number of surviving Culex pipiens pallens was examined and the death rate of the pest was calculated.
As a result, in treatments with the present compounds (1), (2), (3), (4), (5), (6), (7), (13), (14), (15), (16), (18), (22), (23), (24), (25), (26), (27), (28), (29), (30), (31), (32), (33), (34), (35), (36), (38) and (39), the death rate of the pest was 90% or more.

[1] = tested on: Haemaphysalis longicornis; test: Test Example 5: treated filter paper pouch, death rate of ticks; details: 48 h, filter paper treated with 100 mg/m^2, non-blood-sucking nymphal ticks, 10 ticks/group, after 2 days, read-out: death rate of the tick
Method: Five milligrams of any one of the present compounds (19), (23), (24), (27), (28), (29), (32), (33), (35), (38) and (39) was dissolved in 10 mL of acetone. One milliliter of the acetone solution was uniformly applied on one side of a filter paper (TOYO No. 2; 5×10 cm), so that the filter paper was treated with 100 mg/m^2 of the present compound. After drying, the filter paper was folded in two and its edges were clipped to make a pouch. Non-blood-sucking nymphal ticks (Haemaphysalis longicornis, 10 ticks/group) were put into the pouch, and the pouch was sealed with clips. After 2 days, the number of surviving ticks was examined and the death rate was calculated.
As a result, in treatments with the present compounds (19), (23), (24), (27), (28), (29), (32), (33), (35), (38) and (39), the death rate of the tick was 90%.

Blattalla germanica = test: Test Example 3: treated filter paper with sucrose bait, death rate of Blattalla germanica; details: 500 ppm test solution, 0.7 ml on filter paper, 2 male imagoes, after 6 days; for pest or weed control at 500 ppm: 144 h
Method: as §1, with “compounds” for “compounds (1), (2),”, “(7),” for “(7), (8),”, “(13),” for “(13), (18),”
as §2, with “2 male” for “10 female”, “Blattalla germanica” for “Musca domestica”, “6 days,” for “24 hours,”
As a result, in treatments with the present compounds (3), (4), (5), (6), (7), (9), (10), (13), (23), (24), (25), (26), (27), (28), (29), (30), (31), (32), (33), (34), (35), (38) and (39), the death rate of the pest was 100%.

| Compound | pest or weed control at 500 ppm (Musca domestica) [%] | pest or weed control at 3.5 ppm (Culex pipiens pallens) [%] | pest or weed control at 100 mg/m2 [1] [%] | pest or weed control at 500 ppm (Blattalla germanica) [%] | death rate of the pest (Blattalla germanica) [%] |
| --- | --- | --- | --- | --- | --- |
| C#CCC(CC)CCC(C#N)S(=O)(=O)CCC(F)(F)F (centres unmarked) [present compound (29), 5-ethyl-2-(3,3,3-trifluoropropylsulfonyl)-7-octynenitrile] | ≥ 70 | ≥ 90 | 90 | 100 |  |
| C#CCCCC(F)(C(N)=O)S(=O)(=O)CCC(F)(F)F (centres unmarked) [present compound (13), 2-fluoro-2-(3,3,3-trifluoropropylsulfonyl)-6-heptynamide] | ≥ 70 | ≥ 90 |  | 100 |  |
| C#CCCCCC(C)(C(N)=O)S(=O)(=O)CCC(F)(F)F (centres unmarked) [present compound (7), 2-methyl-2-(3,3,3-trifluoropropylsulfonyl)-7-octynamide] | ≥ 70 | ≥ 90 |  | 100 |  |
| N#CC(CC=CC(F)(F)F)S(=O)(=O)CCC(F)(F)F (centres unmarked) [present compound (19), 6,6,6-trifluoro-2-(3,3,3-trifluoropropylsulfonyl)-4-hexenenitrile] |  |  | 90 |  |  |
| C#CCCCCC(Cl)(C(=O)OC)S(=O)(=O)CCC(F)(F)F (centres unmarked) [present compound (4), methyl 2-chloro-2-(3,3,3-trifluoropropylsulfonyl)-7-octyonate] |  |  |  |  | 100 |
| C#CCCCCC(C)(C(=O)OC)S(=O)(=O)CCC(F)(F)F (centres unmarked) [present compound (6), methyl 2-methyl-2-(3,3,3-trifluoropropylsulfonyl)-7-octyonate] |  |  |  |  | 100 |
| C#CC(C)CCCC(C#N)S(=O)(=O)CCC(F)(F)F (centres unmarked) [present compound (28), 6-methyl-2-(3,3,3-trifluoropropylsulfonyl)-7-octynenitrile] | ≥ 70 | ≥ 90 | 90 | 100 |  |
| C#CCCCCCCC(C#N)S(=O)(=O)CCC(F)(F)F (centres unmarked) [present compound (25), 2-(3,3,3-trifluoropropylsulfonyl)-9-decynenitrile] | ≥ 70 | ≥ 90 |  | 100 |  |
| CCC(=CCC(C(=O)OC)S(=O)(=O)CCC(F)(F)F)C(F)(F)F (centres unmarked) [present compound (36), methyl 5-trifluoromethyl-2-(3,3,3-trifluoropropylsulfonyl)-4-heptenoate] |  | ≥ 90 |  |  |  |
| C#CCCCCC(Cl)(C(N)=O)S(=O)(=O)CCC(F)(F)F (centres unmarked) [present compound (5), 2-chloro-2-(3,3,3-trifluoropropylsulfonyl)-7-octynamide] | ≥ 70 | ≥ 90 |  | 100 |  |
| C#CCC(CC)CCC(Cl)(C(=O)OC)S(=O)(=O)CCC(F)(F)F (centres unmarked) [present compound (31), methyl 2-chloro-5-ethyl-2-(3,3,3-trifluoropropylsulfonyl)-7-octynoate] | ≥ 70 | ≥ 90 |  | 100 |  |
| C#CCC(CC)CCC(C(=O)OC)S(=O)(=O)CCC(F)(F)F (centres unmarked) [present compound (30), methyl 5-ethyl-2-(3,3,3-trifluoropropylsulfonyl)-7-octynoate] | ≥ 70 | ≥ 90 |  | 100 |  |
| C#CCCCCC(Cl)(C#N)S(=O)(=O)CCC(F)(F)F (centres unmarked) [present compound (26), 2-chloro-2-(3,3,3-trifluoropropylsulfonyl)-7-octynenitrile] | ≥ 70 | ≥ 90 |  | 100 |  |
| C#CCCC(F)(C(=O)OC)S(=O)(=O)CCC(F)(F)F (centres unmarked) [present compound (9), methyl 2-fluoro-2-(3,3,3-trifluoropropylsulfonyl)-5-hexynoate] | ≥ 70 |  |  | 100 |  |
| C#CCCCCC(C(=O)OC)S(=O)(=O)CCC(F)(F)F (centres unmarked) [present compound (1), methyl 2-(3,3,3-trifluoropropylsulfonyl)-7-octynoate] | ≥ 70 | ≥ 90 |  |  |  |
| C#CCCC(C(=O)OC)S(=O)(=O)CCC(F)(F)F (centres unmarked) [present compound (8), methyl 2-(3,3,3-trifluoropropylsulfonyl)-5-hexynoate] | ≥ 70 |  |  |  |  |
| C#CCCCCCC(C(=O)OC)S(=O)(=O)CCC(F)(F)F (centres unmarked) [present compound (14), methyl 2-(3,3,3-trifluoropropylsulfonyl)-8-nonynoate] |  | ≥ 90 |  |  |  |
| CC(C#N)(C/C=C/C(F)(F)F)S(=O)(=O)CCC(F)(F)F (centres unmarked) [present compound (34), 6,6,6-trifluoro-2-methyl-2-(3,3,3-trifluoropropylsulfonyl)-4-hexenenitrile] | ≥ 70 | ≥ 90 |  | 100 |  |
| COC(=O)C(Cl)(CC=CC(F)(F)F)S(=O)(=O)CCC(F)(F)F (centres unmarked) [present compound (18), methyl 2-chloro-6,6,6-trifluoro-2-(3,3,3-trifluoropropylsulfonyl)-4-hexenoate] | ≥ 70 | ≥ 90 |  |  |  |
| C#CCCCCCC(F)(C(N)=O)S(=O)(=O)CCC(F)(F)F (centres unmarked) [present compound (16), 2-fluoro-2-(3,3,3-trifluoropropylsulfonyl)-8-nonynamide] |  | ≥ 90 |  |  |  |
| C#CCCC(F)(C(N)=O)S(=O)(=O)CCC(F)(F)F (centres unmarked) [present compound (10), 2-fluoro-2-(3,3,3-trifluoropropylsulfonyl)-5-hexynamide] | ≥ 70 |  |  | 100 |  |
| C#CCCCCC(F)(C(N)=O)S(=O)(=O)CCC(F)(F)F (centres unmarked) [present compound (3), 2-fluoro-2-(3,3,3-trifluoropropylsulfonyl)-7-octynamide] | ≥ 70 | ≥ 90 |  | 100 |  |
| C#CCCCCC(F)(C(=O)OC)S(=O)(=O)CCC(F)(F)F (centres unmarked) [present compound (2), methyl 2-fluoro-2-(3,3,3-trifluoropropylsulfonyl)-7-octynoate] | ≥ 70 | ≥ 90 |  |  |  |
| C#CCCCCCC(F)(C(=O)OC)S(=O)(=O)CCC(F)(F)F (centres unmarked) [present compound (15), methyl 2-fluoro-2-(3,3,3-trifluoropropylsulfonyl)-8-nonynoate] |  | ≥ 90 |  |  |  |
